Measured values from paper PMC11607601, “Absence of the dolichol synthesis gene DHRSX leads to N-glycosylation defects in Lec5 and Lec9 Chinese hamster ovary cells” (The Journal of Biological Chemistry, 2024).
Each block holds one molecule with its values, some of them ahead of it.

Legend:
Format in all cases: biochemical
[1] = molecular target: T1, chDHRSX (Chinese hamster DHRSX) (Cricetulus griseus, UniProt A0A9J7GKV7); test: LC-MS of polyprenal-18 formation, Michaelis-Menten fit; conditions: 4 μM polyprenol mixture, pH 8.0, 37 °C, PC/PE lipids
T1 construct: gene LOC113838539; N-terminal 6xHis tag, pET15b, E. coli BL21(DE3), HisTrap native purification
T1 sequence (A0A9J7GKV7 1-328): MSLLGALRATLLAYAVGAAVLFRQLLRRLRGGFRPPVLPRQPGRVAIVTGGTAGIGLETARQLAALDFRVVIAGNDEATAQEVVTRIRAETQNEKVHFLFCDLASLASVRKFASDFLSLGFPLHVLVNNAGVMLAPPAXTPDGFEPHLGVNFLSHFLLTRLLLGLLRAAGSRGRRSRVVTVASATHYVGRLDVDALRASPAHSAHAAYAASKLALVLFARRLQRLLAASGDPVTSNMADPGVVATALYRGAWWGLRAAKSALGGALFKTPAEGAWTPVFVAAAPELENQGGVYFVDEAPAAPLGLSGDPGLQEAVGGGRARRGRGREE
Text: LC-MS of polyprenal-18 formation, Michaelis-Menten fit on chDHRSX (Chinese hamster DHRSX)

hDHRSX (human DHRSX) [2] = molecular target: T2, hDHRSX (human DHRSX) (Homo sapiens, UniProt Q8N5I4); test: LC-MS of polyprenal-18 formation in membranes; conditions: polyprenol mixture 5 μg/ml, 5 mM NAD+, pH 8.0, 37 °C, 2 h
T2 construct: pUB83 hDHRSX-N-His lentiviral expression in DHRSX-null Lec5 and Lec9 CHO cells; membrane preparation
T2 sequence (Q8N5I4 2-330): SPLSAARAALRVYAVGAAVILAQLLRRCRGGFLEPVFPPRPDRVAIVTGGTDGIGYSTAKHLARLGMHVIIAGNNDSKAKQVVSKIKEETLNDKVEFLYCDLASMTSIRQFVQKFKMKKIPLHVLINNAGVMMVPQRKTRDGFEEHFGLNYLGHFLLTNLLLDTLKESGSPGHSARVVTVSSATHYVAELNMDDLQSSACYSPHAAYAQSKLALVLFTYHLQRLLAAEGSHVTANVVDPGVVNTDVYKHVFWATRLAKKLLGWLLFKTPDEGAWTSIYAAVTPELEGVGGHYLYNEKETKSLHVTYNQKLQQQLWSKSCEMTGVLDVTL

[3] = molecular target: T1, chDHRSX (Chinese hamster DHRSX); test: LC-MS of dolichol-18 formation, Michaelis-Menten fit; conditions: 4 μM dolichal mixture, pH 8.0, 37 °C, PC/PE lipids
Text: LC-MS of dolichol-18 formation, Michaelis-Menten fit on chDHRSX (Chinese hamster DHRSX)

hDHRSX (human DHRSX) [4] = molecular target: T2, hDHRSX (human DHRSX); test: LC-MS of dolichol-18 formation in membranes; conditions: dolichal mixture 5 μg/ml, 5 mM NADPH, pH 8.0, 37 °C, 2 h

- Km ([1]; read-out: NAD^+): 81 ± 36 µM
SMILES: NC(=O)c1ccc[n+]([C@@H]2O[C@H](COP(=O)(O)OP(=O)(O)OC[C@H]3O[C@@H](n4cnc5c(N)ncnc54)[C@H](O)[C@@H]3O)[C@@H](O)[C@H]2O)c1 [NAD^+]
- LC-MS of polyprenal-18 formation in membranes (hDHRSX (human DHRSX) [2]): expression of hDHRSX in Lec5 and Lec9 cells increased the formation of polyprenal

- Km ([3]; read-out: NADPH): 26 ± 8 µM
SMILES: NC(=O)C1=CN([C@@H]2O[C@H](COP(=O)(O)OP(=O)(O)OC[C@H]3O[C@@H](n4cnc5c(N)ncnc54)[C@H](OP(=O)(O)O)[C@@H]3O)[C@@H](O)[C@H]2O)C=CC1 [NADPH]
- LC-MS of dolichol-18 formation in membranes (hDHRSX (human DHRSX) [4]): expression of hDHRSX strongly increased dolichol formation

- Km ([3]; read-out: NADH): 34 ± 7 µM
SMILES: NC(=O)C1=CN([C@@H]2O[C@H](COP(=O)(O)OP(=O)(O)OC[C@H]3O[C@@H](n4cnc5c(N)ncnc54)[C@H](O)[C@@H]3O)[C@@H](O)[C@H]2O)C=CC1 [NADH]

- Km ([1]; read-out: NADP^+): 96 ± 43 µM
SMILES: NC(=O)c1ccc[n+]([C@@H]2O[C@H](COP(=O)(O)OP(=O)(O)OC[C@H]3O[C@@H](n4cnc5c(N)ncnc54)[C@H](OP(=O)(O)O)[C@@H]3O)[C@@H](O)[C@H]2O)c1 [NADP^+]
